In test [1] the target is T1, 5-hydroxytryptamine receptor 2B (Homo sapiens, UniProt P41595). The test is described as follows: Displacement of [125I](+/-)DOI from human recombinant 5-HT2B receptor expressed in CHO cells after 60 mins by scintillation counting. Format: cell-based. For orientation: Displacement assays read how much labelled ligand stays bound in the presence of the test substance.

For test [2], the system named is A-431. Nature of the test: Growth inhibition of human A431 cells assessed as cell death at 25 uM after 72 hrs by MTT assay relative to control. Details: scale not given: the % may be the effect or the level left. Format: functional. On the technique in general: Tetrazolium assays rely on reduction of a dye to a coloured formazan, in cell work by metabolically active cells.

Test [3] is described as follows: Growth inhibition of human SJ-G2 cells assessed as cell death at 25 uM after 72 hrs by MTT assay relative to control. Format: functional. Further details: scale not given: the % may be the effect or the level left.
The nature of test [4]: Growth inhibition of human SMA cells assessed as cell death at 25 uM after 72 hrs by MTT assay relative to control. The class given is functional. Further details: scale not given: the % may be the effect or the level left.
Test [5] has as its system MCF7. The test is described as follows: Growth inhibition of human MCF7 cells assessed as cell death at 25 uM after 72 hrs by MTT assay relative to control. The class given is functional. Further details: scale not given: the % may be the effect or the level left.
Test [6] has as its system NCI-H460. The test is described as follows: Growth inhibition of human NCI-H460 cells assessed as cell death at 25 uM after 72 hrs by MTT assay relative to control. The class given is functional. Details: scale not given: the % may be the effect or the level left.
The nature of test [7]: Growth inhibition of human U87 cells assessed as cell death at 25 uM after 72 hrs by MTT assay relative to control. Details: scale not given: the % may be the effect or the level left. Format: functional, U-87MG ATCC.
For test [8], the system named is SW480. The test is described as follows: Growth inhibition of human SW480 cells assessed as cell death at 25 uM after 72 hrs by MTT assay relative to control. Further details: scale not given: the % may be the effect or the level left. The class given is functional.
The subject of test [9] is DU-145. The test is described as follows: Growth inhibition of human DU145 cells assessed as cell death at 25 uM after 72 hrs by MTT assay relative to control. The class given is functional. Details: scale not given: the % may be the effect or the level left.
The test system of test [10] is BE(2)-C. Nature of the test: Growth inhibition of human BE(2)-C cells assessed as cell death at 25 uM after 72 hrs by MTT assay relative to control. Details: scale not given: the % may be the effect or the level left. Format: functional.
Test [11] has as its system MIA PaCa-2. Nature of the test: Growth inhibition of human MIAPaCa2 cells assessed as cell death at 25 uM after 72 hrs by MTT assay relative to control. The class given is functional. Details: scale not given: the % may be the effect or the level left.
Test [12] relates to A2780. Nature of the test: Growth inhibition of human A2780 cells assessed as cell death at 25 uM after 72 hrs by MTT assay relative to control. Format: functional. Further details: scale not given: the % may be the effect or the level left.
A short description of test [13]: Inhibition of phosphatidyl serine liposome-stimulated sheep brain dynamin 1 GTPase activity assessed as reduction orthophosphate release using GTP as substrate after 30 mins by malachite green reagent based colorimetric assay. Further details: species or system Ovis aries. The following applies: read-out: IC50.
For test [14], the system named is HT-29. Nature of the test: Growth inhibition of human HT-29 cells assessed as cell death at 25 uM after 72 hrs by MTT assay relative to control. Format: functional. Details: scale not given: the % may be the effect or the level left.
The target in test [15] is Sodium-dependent noradrenaline transporter (Homo sapiens) (UniProt P23975). The test is described as follows: Displacement of [3H]nisoxetine from human recombinant norepinephrine transporter expressed in CHO cells at 10 uM after 120 mins by scintillation counting relative to control. Format: cell-based. As to conditions: values are per cent of control.
Sodium-dependent noradrenaline transporter (Homo sapiens), sequence (P23975 whole entry): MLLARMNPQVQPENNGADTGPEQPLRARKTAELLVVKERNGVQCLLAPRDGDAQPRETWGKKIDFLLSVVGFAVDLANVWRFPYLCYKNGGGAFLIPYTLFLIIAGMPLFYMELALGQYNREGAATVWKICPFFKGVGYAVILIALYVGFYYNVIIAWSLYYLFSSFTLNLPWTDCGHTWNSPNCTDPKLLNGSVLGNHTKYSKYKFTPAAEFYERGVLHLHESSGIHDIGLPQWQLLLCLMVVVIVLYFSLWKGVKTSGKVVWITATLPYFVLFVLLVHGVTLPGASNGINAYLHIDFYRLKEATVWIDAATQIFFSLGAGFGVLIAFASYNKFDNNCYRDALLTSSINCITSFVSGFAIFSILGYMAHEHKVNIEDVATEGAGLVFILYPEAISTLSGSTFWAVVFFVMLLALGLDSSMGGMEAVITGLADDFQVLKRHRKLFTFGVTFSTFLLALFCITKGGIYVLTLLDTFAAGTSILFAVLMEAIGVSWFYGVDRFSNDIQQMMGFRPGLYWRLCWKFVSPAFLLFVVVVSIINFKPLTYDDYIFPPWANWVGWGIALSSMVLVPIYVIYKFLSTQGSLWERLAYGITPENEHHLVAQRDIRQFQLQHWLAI
In test [16] the target is Substance-K receptor (Homo sapiens) (UniProt P21452). The test is described as follows: Displacement of [125I]NKA from human recombinant tachykinin NK2 receptor expressed in CHO cells at 10 uM after 60 mins by scintillation counting relative to control. The class given is cell-based. The following applies: values are per cent of control.
Substance-K receptor (Homo sapiens), sequence (P21452 whole entry): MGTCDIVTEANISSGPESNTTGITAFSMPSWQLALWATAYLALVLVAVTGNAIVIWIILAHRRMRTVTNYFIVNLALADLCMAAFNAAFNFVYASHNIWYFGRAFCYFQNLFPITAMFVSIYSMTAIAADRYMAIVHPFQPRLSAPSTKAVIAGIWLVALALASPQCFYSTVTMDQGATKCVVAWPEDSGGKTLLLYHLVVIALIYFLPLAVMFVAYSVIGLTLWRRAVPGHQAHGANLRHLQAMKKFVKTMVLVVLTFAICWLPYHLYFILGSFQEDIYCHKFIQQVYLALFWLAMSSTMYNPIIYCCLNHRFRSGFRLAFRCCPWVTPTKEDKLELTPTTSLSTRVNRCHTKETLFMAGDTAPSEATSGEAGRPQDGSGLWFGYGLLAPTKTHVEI
The target of test [17] is Histamine H1 receptor (Homo sapiens) (UniProt P35367). Nature of the test: Displacement of [3H]pyrilamine from human recombinant histamine H1 receptor in HEK293 cells at 10 uM after 60 mins by scintillation counting relative to control. Format: cell-based. The following applies: values are per cent of control.
Histamine H1 receptor (Homo sapiens), sequence (P35367 whole entry): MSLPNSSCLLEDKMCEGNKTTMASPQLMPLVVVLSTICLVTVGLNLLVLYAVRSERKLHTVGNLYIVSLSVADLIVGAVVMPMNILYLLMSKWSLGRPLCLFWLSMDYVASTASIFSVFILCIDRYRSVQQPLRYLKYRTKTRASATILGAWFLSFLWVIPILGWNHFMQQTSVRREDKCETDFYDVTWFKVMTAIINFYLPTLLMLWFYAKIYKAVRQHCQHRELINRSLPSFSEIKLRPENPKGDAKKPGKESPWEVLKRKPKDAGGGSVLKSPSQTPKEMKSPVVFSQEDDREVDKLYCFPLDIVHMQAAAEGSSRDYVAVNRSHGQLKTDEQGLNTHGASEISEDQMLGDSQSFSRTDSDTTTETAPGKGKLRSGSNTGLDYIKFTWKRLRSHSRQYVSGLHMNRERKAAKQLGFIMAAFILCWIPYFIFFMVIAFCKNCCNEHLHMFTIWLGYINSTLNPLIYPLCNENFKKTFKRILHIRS
The nature of test [18]: Growth inhibition of human SMA cells after 72 hrs by MTT assay. Format: functional.
In test [19] the target is T1, 5-hydroxytryptamine receptor 2B. Nature of the test: Displacement of [125I](+/-)DOI from human recombinant 5-HT2B receptor expressed in CHO cells at 10 uM after 60 mins by scintillation counting relative to control. The following applies: values are per cent of control. The class given is cell-based.
For test [20], the target named is 5-hydroxytryptamine receptor 2A (Homo sapiens) (UniProt P28223). The test is described as follows: Displacement of [3H]ketanserin from human recombinant 5-HT2A receptor in HEK293 cells at 10 uM after 60 mins by scintillation counting relative to control. Format: cell-based. The following applies: values are per cent of control.
5-hydroxytryptamine receptor 2A (Homo sapiens), sequence (P28223 whole entry): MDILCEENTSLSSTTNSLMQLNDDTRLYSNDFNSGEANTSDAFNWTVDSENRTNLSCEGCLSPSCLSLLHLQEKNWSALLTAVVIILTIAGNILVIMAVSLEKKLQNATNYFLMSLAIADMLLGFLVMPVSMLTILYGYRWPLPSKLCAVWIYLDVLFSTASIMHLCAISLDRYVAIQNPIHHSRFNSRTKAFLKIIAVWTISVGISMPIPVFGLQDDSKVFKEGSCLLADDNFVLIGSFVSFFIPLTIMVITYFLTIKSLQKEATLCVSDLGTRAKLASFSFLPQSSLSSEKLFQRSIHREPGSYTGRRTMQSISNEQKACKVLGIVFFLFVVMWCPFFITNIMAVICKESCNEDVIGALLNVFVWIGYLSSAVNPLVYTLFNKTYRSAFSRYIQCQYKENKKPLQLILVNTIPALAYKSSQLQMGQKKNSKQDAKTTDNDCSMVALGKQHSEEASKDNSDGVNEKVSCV
Test [21] deals with Kappa-type opioid receptor (Rattus norvegicus) (UniProt P34975). Nature of the test: Displacement of [3H]U 69593 from rat recombinant kappa opioid receptor expressed in CHO cells at 10 uM after 60 mins by scintillation counting relative to control. Format: cell-based. As to conditions: values are per cent of control.
Kappa-type opioid receptor (Rattus norvegicus), sequence (P34975 whole entry): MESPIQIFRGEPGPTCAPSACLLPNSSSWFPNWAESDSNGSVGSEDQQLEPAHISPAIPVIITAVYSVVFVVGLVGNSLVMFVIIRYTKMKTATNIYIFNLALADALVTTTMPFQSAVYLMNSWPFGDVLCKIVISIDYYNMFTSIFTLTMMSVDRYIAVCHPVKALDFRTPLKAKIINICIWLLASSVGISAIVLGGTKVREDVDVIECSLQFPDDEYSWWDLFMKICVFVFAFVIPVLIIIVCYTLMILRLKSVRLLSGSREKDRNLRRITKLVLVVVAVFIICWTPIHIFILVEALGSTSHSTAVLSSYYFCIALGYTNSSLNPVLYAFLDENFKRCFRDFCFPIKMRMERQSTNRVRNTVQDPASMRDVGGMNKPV
For test [22], the target named is 5-hydroxytryptamine receptor 5A (Homo sapiens) (UniProt P47898). Nature of the test: Displacement of [3H]LSD from human recombinant 5-HT5a receptor in HEK293 cells at 10 uM after 120 mins by scintillation counting relative to control. The class given is cell-based. As to conditions: values are per cent of control.
In test [23] the target is Histamine H2 receptor (Homo sapiens) (UniProt P25021). Nature of the test: Displacement of [125I]APT from human recombinant histamine H2 receptor expressed in CHO cells at 10 uM after 120 mins by scintillation counting relative to control. The class given is cell-based. The following applies: values are per cent of control.
Test [24] is described as follows: Growth inhibition of human U87 cells after 72 hrs by MTT assay. The class given is functional, U-87MG ATCC. As to conditions: U-87 MG.
The target of test [25] is Muscarinic acetylcholine receptor M1 (Homo sapiens) (UniProt P11229). The test is described as follows: Displacement of [3H]pirenzepine from human recombinant Muscarinic acetylcholine receptor M1 expressed in CHO cells at 10 uM after 60 mins by scintillation counting relative to control. As to conditions: values are per cent of control. The class given is cell-based.
Muscarinic acetylcholine receptor M1 (Homo sapiens), sequence (P11229 whole entry): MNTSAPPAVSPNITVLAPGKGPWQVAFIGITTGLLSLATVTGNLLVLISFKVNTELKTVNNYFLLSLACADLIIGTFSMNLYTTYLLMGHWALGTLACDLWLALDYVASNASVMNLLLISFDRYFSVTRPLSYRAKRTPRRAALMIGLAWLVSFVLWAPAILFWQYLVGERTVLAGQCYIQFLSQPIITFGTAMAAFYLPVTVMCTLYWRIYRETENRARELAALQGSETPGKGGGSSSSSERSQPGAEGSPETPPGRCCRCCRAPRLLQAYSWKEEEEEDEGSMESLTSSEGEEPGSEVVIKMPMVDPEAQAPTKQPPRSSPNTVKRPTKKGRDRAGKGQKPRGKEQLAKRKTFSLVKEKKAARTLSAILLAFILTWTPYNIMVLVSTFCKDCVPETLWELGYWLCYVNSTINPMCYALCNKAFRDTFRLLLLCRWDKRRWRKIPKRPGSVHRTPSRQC
Test [26] has as its system A-431. Nature of the test: Growth inhibition of human A431 cells after 72 hrs by MTT assay. The following applies: A-431, 72 h. Format: functional.
Test [27] deals with BE(2)-C. Nature of the test: Growth inhibition of human BE(2)-C cells after 72 hrs by MTT assay. The class given is functional.
A short description of test [28]: Growth inhibition of human SJ-G2 cells after 72 hrs by MTT assay. Format: functional. The following applies: SJ-G2, 72 h.
For test [29], the system named is MCF7. The test is described as follows: Growth inhibition of human MCF7 cells after 72 hrs by MTT assay. Format: functional. The following applies: MCF7, 72 h.
The target of test [30] is Sodium-dependent dopamine transporter (Homo sapiens) (UniProt Q01959). Nature of the test: Displacement of [3H]BTCP from human recombinant dopamine transporter expressed in CHO cells at 10 uM after 120 mins by scintillation counting relative to control. Format: cell-based. The following applies: values are per cent of control.
Test [31] deals with HT-29. The test is described as follows: Growth inhibition of human HT-29 cells after 72 hrs by MTT assay. The following applies: HT-29, 72 h. The class given is functional.
Test [32] has as its target 5-hydroxytryptamine receptor 7 (Homo sapiens) (UniProt P34969). Nature of the test: Displacement of [3H]LSD from human recombinant 5-HT7 receptor expressed in CHO cells at 10 uM after 120 mins by scintillation counting relative to control. The class given is cell-based. The following applies: values are per cent of control.
The target of test [33] is Melanocortin receptor 4 (Homo sapiens) (UniProt P32245). The test is described as follows: Inhibition of human recombinant melanocortin 4 receptor expressed in CHO cells at 10 uM relative to control. The following applies: values are per cent of control. Format: cell-based.
The target of test [34] is 5-hydroxytryptamine receptor 6 (Homo sapiens) (UniProt P50406). The test is described as follows: Displacement of [3H]LSD from human recombinant 5-HT6 receptor expressed in CHO cells at 10 uM after 120 mins by scintillation counting relative to control. The class given is cell-based. The following applies: values are per cent of control.
For test [35], the system named is DU-145. Nature of the test: Growth inhibition of human DU145 cells after 72 hrs by MTT assay. Format: functional. The following applies: DU-145, 72 h.
The test system of test [36] is A2780. The test is described as follows: Growth inhibition of human A2780 cells after 72 hrs by MTT assay. Format: functional. As to conditions: A2780, 72 h.
The subject of test [37] is MIA PaCa-2. Nature of the test: Growth inhibition of human MIAPaCa2 cells after 72 hrs by MTT assay. Format: functional. The following applies: MIA PaCa-2, 72 h.
The test system of test [38] is NCI-H460. Nature of the test: Growth inhibition of human NCI-H460 cells after 72 hrs by MTT assay. Format: functional. As to conditions: NCI-H460, 72 h.
Test [39] deals with D(2) dopamine receptor (Homo sapiens) (UniProt P14416). Nature of the test: Displacement of [3H]methyl-spiperone from human recombinant D2S receptor in HEK293 cells at 10 uM after 60 mins by scintillation counting relative to control. As to conditions: values are per cent of control. Format: cell-based.
D(2) dopamine receptor (Homo sapiens), sequence (P14416 whole entry): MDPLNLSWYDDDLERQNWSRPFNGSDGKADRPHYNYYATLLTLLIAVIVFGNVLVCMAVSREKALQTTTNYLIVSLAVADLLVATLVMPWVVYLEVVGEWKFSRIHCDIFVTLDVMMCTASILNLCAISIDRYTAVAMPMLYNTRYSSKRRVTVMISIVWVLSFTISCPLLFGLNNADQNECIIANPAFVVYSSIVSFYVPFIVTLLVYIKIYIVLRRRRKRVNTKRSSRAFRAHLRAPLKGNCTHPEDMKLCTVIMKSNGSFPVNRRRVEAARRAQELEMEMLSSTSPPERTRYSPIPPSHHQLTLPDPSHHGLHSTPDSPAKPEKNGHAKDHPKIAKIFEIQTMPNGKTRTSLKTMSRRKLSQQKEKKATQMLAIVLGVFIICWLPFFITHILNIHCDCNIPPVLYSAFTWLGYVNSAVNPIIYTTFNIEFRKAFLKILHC
Test [40] concerns SW480. The test is described as follows: Growth inhibition of human SW480 cells after 72 hrs by MTT assay. The class given is functional. The following applies: SW480, 72 h.
Test [41] addresses Muscarinic acetylcholine receptor M3 (Homo sapiens) (UniProt P20309). Nature of the test: Displacement of [3H]4-DAMP from human recombinant Muscarinic acetylcholine receptor M3 expressed in CHO cells at 10 uM after 60 mins by scintillation counting relative to control. As to conditions: values are per cent of control. The class given is cell-based.

T1 sequence (P41595 whole entry): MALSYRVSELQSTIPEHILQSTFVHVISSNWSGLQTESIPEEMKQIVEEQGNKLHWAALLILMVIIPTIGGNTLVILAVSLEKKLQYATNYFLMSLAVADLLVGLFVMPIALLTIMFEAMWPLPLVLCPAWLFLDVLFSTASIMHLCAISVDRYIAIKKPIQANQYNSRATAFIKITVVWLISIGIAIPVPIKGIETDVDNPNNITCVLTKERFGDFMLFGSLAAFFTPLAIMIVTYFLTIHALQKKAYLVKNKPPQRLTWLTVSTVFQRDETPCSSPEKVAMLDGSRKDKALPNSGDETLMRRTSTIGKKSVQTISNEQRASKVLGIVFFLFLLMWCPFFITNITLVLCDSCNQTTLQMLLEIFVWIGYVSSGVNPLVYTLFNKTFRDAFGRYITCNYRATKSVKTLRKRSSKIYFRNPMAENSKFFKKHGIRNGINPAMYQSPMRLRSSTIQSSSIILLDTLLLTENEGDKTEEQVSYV
Muscarinic acetylcholine receptor M3 (Homo sapiens), sequence (P20309 whole entry, looked up): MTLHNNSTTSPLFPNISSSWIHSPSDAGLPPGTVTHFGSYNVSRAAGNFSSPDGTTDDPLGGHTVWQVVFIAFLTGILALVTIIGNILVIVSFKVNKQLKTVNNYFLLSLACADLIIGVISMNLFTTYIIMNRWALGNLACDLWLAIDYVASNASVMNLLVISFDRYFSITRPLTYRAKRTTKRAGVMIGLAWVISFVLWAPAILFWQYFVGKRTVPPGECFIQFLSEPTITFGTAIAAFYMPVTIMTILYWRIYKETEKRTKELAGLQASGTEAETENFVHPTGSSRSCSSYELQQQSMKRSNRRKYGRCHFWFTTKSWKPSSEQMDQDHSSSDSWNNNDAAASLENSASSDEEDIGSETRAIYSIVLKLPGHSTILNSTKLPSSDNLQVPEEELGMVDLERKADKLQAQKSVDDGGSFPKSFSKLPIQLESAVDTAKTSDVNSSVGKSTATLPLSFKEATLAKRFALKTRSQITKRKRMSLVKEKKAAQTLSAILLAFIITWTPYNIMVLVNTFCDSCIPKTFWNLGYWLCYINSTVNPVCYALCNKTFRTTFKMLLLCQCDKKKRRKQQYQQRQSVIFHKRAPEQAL
5-hydroxytryptamine receptor 7 (Homo sapiens), sequence (P34969 whole entry): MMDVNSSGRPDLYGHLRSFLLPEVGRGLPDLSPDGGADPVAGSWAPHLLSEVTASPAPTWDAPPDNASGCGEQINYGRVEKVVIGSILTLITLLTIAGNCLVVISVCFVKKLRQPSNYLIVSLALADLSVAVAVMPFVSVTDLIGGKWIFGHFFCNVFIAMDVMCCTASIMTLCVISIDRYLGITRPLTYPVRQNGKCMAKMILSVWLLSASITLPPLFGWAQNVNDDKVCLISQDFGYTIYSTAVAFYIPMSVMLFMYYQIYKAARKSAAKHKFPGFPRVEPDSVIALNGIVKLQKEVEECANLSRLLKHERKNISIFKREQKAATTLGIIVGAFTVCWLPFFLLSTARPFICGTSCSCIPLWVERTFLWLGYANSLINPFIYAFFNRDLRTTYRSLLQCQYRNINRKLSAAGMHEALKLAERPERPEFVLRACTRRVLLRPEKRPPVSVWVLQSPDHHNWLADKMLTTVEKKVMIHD

Consider `COc1cc(CC(C)N)c(OC)cc1I` (racemic), for which the Ki in test [1] was determined as 1.6 nM.

As for `CCCCCCCCCCCCNc1nc(C)cc(Cl)n1`, the Activity is reported as 25% in the test with A-431 [2]; 25% in test [3]; 65% in test [4]; 53% with MCF7 [5]; 21% in the test on NCI-H460 [6]; 21% in [7]. The Activity in the test with SW480 [8] is listed as 37%; in the test on DU-145 [9], 42%; in the test on BE(2)-C [10], 46%; in the test on MIA PaCa-2 [11], 42%; in the test on A2780 [12], 63%; with HT-29 [14] it was 56%. The half-inhibitory concentration (IC50) in test [13] is more than 300000 nM.

For `CCCCCCCCCCCCNc1nc(C)cc(NCCN(C)C)n1`, the residual binding, % of control in test [15] worked out at 96%; in [16], 93%; in test [17] it was 102%; in [19] it was 94%; in test [20] it was 93%; in [21] it was 97%. In addition, the residual binding, % of control was determined as 99% in [22]; 106% in test [23]; 91% in [25]; 105% in test [30]; 98% in [32]; 96% in test [33]. The residual binding, % of control in [34] is 91%; in test [39] it was 99%; in test [41], 104%. Besides, the GI50 in test [18] came out at 1300 nM; in test [24], 1500 nM; in the test on A-431 [26] it was 1700 nM; with BE(2)-C [27], 1500 nM; in test [28], 1500 nM; in the test with MCF7 [29], 1500 nM. The 50% growth inhibitory concentration (GI50) is 1400 nM in the test with HT-29 [31]; 1900 nM in the test on DU-145 [35]; 1800 nM in the test on A2780 [36]; 1500 nM in the test on MIA PaCa-2 [37]; 2500 nM in the test on NCI-H460 [38]; 800 nM in the test on SW480 [40]. Besides, the IC50 in test [13] amounted to 1400 nM.

By Ki is commonly meant the dissociation constant of the complex between target and ligand, obtained from inhibition or displacement. As usually defined, the IC50 is the concentration at which inhibition is half-maximal. Usually GI50 stands for the concentration that inhibits growth by half.

Source of the values: ChEMBL document CHEMBL4000185, “Pyrimidine-Based Inhibitors of Dynamin I GTPase Activity: Competitive Inhibition at the Pleckstrin Homology Domain” (J Med Chem, 2017).
